Reference: ChEMBL document CHEMBL5724914, “Linking interpersonal differences in gut microbiota composition and drug biotransformation activity” (2024)

Columns and labels:
[1] = human gut metagenome, 24 h, 2 µM
[2] = (§1) The drug is tested on Z-005 corresponding to metagenome with ENA study accession number: PRJEB37062 and ENA sample accession number: ERS12561805 for biotransformation under anaerobic condition. The drug concentrations were measured over 9 timepoints collected between 0 and 24 hours of incubation by liquid-chromatography-coupled mass spectrometry (LC–MS); conditions: 2 µM
[3] = human gut metagenome, 24 h, 2 µM; remark: listed apart in the source
[4] = human gut metagenome, 24 h, 2 µM; remark: listed apart in the source
[5] = (§2) The drug is tested on WLS-090 corresponding to human gut metagenome with ENA study accession number: PRJEB37062 and ENA sample accession number: ERS12561753 for biotransformation under anaerobic condition. The drug concentrations were measured over 9 timepoints collected between 0 and 24 hours of incubation by liquid-chromatography-coupled mass spectrometry (LC–MS); conditions: 2 µM
[6] = as §2, with “Z-002” for “WLS-090”, “rabbit” for “human”, “ERS12561802” for “ERS12561753”; conditions: 2 µM
[7] = human gut metagenome, 24 h, 2 µM; remark: listed apart in the source
[8] = as §1, with “Z-026” for “Z-005”, “ERS12561825” for “ERS12561805”; conditions: 2 µM
[9] = as §2, with “WLS-052” for “WLS-090”, “ERS12561747” for “ERS12561753”; conditions: 2 µM
[10] = human gut metagenome, 24 h, 2 µM; remark: listed apart in the source
[11] = human gut metagenome, 24 h, 2 µM; remark: listed apart in the source
[12] = human gut metagenome, 24 h, 2 µM; remark: listed apart in the source
[13] = human gut metagenome, 24 h, 2 µM; remark: listed apart in the source
[14] = human gut metagenome, 24 h, 2 µM; remark: listed apart in the source
[15] = as §2, with “WLS-039” for “WLS-090”, “ERS12561746” for “ERS12561753”; conditions: 2 µM
[16] = as §2, with “WLS-350” for “WLS-090”, “ERS12561789” for “ERS12561753”; conditions: 2 µM
[17] = human gut metagenome, 24 h, 2 µM; remark: listed apart in the source
[18] = as §2, with “Z-020” for “WLS-090”, “rabbit” for “human”, “ERS12561819” for “ERS12561753”; conditions: 2 µM
[19] = human gut metagenome, 24 h, 2 µM; remark: listed apart in the source
[20] = as §2, with “Z-024” for “WLS-090”, “pig” for “human”, “ERS12561823” for “ERS12561753”; conditions: 2 µM
Note: call rule not given here.

O=C1CN2Cc3c(ccc(Cl)c3Cl)N=C2N1 [ANAGRELIDE]
Bacterial Biotransformation [1]: Compound metabolized
Bacterial Biotransformation [2]: Compound NOT metabolized
Bacterial Biotransformation [3]: Compound NOT metabolized
Bacterial Biotransformation [4]: Compound NOT metabolized
Bacterial Biotransformation [5]: Compound metabolized
Bacterial Biotransformation [6]: Compound NOT metabolized
Bacterial Biotransformation [7]: Compound NOT metabolized
Bacterial Biotransformation [8]: Compound NOT metabolized
Bacterial Biotransformation [9]: Compound metabolized
Bacterial Biotransformation [10]: Compound NOT metabolized
Bacterial Biotransformation [11]: Compound metabolized
Bacterial Biotransformation [12]: Compound metabolized
Bacterial Biotransformation [13]: Compound NOT metabolized
Bacterial Biotransformation [14]: Compound NOT metabolized
Bacterial Biotransformation [15]: Compound NOT metabolized
Bacterial Biotransformation [16]: Compound NOT metabolized
Bacterial Biotransformation [17]: Compound NOT metabolized
Bacterial Biotransformation [18]: Compound NOT metabolized
Bacterial Biotransformation [19]: Compound NOT metabolized
Bacterial Biotransformation [20]: Compound metabolized

Clc1cccc(Cl)c1N=C1NCCN1 [CLONIDINE]
Bacterial Biotransformation [1]: Compound metabolized
Bacterial Biotransformation [2]: Compound NOT metabolized
Bacterial Biotransformation [3]: Compound NOT metabolized
Bacterial Biotransformation [4]: Compound NOT metabolized
Bacterial Biotransformation [5]: Compound metabolized
Bacterial Biotransformation [6]: Compound metabolized
Bacterial Biotransformation [7]: Compound metabolized
Bacterial Biotransformation [8]: Compound NOT metabolized
Bacterial Biotransformation [9]: Compound NOT metabolized
Bacterial Biotransformation [10]: Compound NOT metabolized
Bacterial Biotransformation [11]: Compound NOT metabolized
Bacterial Biotransformation [12]: Compound NOT metabolized
Bacterial Biotransformation [13]: Compound NOT metabolized
Bacterial Biotransformation [14]: Compound NOT metabolized
Bacterial Biotransformation [15]: Compound NOT metabolized
Bacterial Biotransformation [16]: Compound NOT metabolized
Bacterial Biotransformation [17]: Compound NOT metabolized
Bacterial Biotransformation [18]: Compound metabolized
Bacterial Biotransformation [19]: Compound NOT metabolized
Bacterial Biotransformation [20]: Compound NOT metabolized

CC(=O)O[C@]1(C(C)=O)CC[C@H]2[C@@H]3C=C(C)C4=CC(=O)CC[C@]4(C)[C@H]3CC[C@@]21C [MEGESTROL ACETATE]
Bacterial Biotransformation [1]: Compound metabolized
Bacterial Biotransformation [2]: Compound metabolized
Bacterial Biotransformation [3]: Compound metabolized
Bacterial Biotransformation [4]: Compound metabolized
Bacterial Biotransformation [5]: Compound metabolized
Bacterial Biotransformation [6]: Compound metabolized
Bacterial Biotransformation [7]: Compound metabolized
Bacterial Biotransformation [8]: Compound metabolized
Bacterial Biotransformation [9]: Compound metabolized
Bacterial Biotransformation [10]: Compound metabolized
Bacterial Biotransformation [11]: Compound metabolized
Bacterial Biotransformation [12]: Compound metabolized
Bacterial Biotransformation [13]: Compound metabolized
Bacterial Biotransformation [14]: Compound metabolized
Bacterial Biotransformation [15]: Compound metabolized
Bacterial Biotransformation [16]: Compound metabolized
Bacterial Biotransformation [17]: Compound metabolized
Bacterial Biotransformation [18]: Compound metabolized
Bacterial Biotransformation [19]: Compound metabolized
Bacterial Biotransformation [20]: Compound NOT metabolized

CCOc1ccccc1OCCN[C@H](C)Cc1ccc(OC)c(S(N)(=O)=O)c1.Cl [TAMSULOSIN HYDROCHLORIDE]
Bacterial Biotransformation [1]: Compound metabolized
Bacterial Biotransformation [2]: Compound NOT metabolized
Bacterial Biotransformation [3]: Compound NOT metabolized
Bacterial Biotransformation [4]: Compound NOT metabolized
Bacterial Biotransformation [5]: Compound metabolized
Bacterial Biotransformation [6]: Compound metabolized
Bacterial Biotransformation [7]: Compound metabolized
Bacterial Biotransformation [8]: Compound NOT metabolized
Bacterial Biotransformation [9]: Compound NOT metabolized
Bacterial Biotransformation [10]: Compound NOT metabolized
Bacterial Biotransformation [11]: Compound NOT metabolized
Bacterial Biotransformation [12]: Compound NOT metabolized
Bacterial Biotransformation [13]: Compound NOT metabolized
Bacterial Biotransformation [14]: Compound NOT metabolized
Bacterial Biotransformation [15]: Compound NOT metabolized
Bacterial Biotransformation [16]: Compound NOT metabolized
Bacterial Biotransformation [17]: Compound NOT metabolized
Bacterial Biotransformation [18]: Compound NOT metabolized
Bacterial Biotransformation [19]: Compound NOT metabolized
Bacterial Biotransformation [20]: Compound NOT metabolized

COc1ccc2c(c1)c(CC(=O)O)c(C)n2C(=O)c1ccc(Cl)cc1 [INDOMETHACIN]
Bacterial Biotransformation [1]: Compound metabolized
Bacterial Biotransformation [2]: Compound NOT metabolized
Bacterial Biotransformation [3]: Compound NOT metabolized
Bacterial Biotransformation [4]: Compound metabolized
Bacterial Biotransformation [5]: Compound metabolized
Bacterial Biotransformation [6]: Compound NOT metabolized
Bacterial Biotransformation [7]: Compound metabolized
Bacterial Biotransformation [8]: Compound NOT metabolized
Bacterial Biotransformation [9]: Compound metabolized
Bacterial Biotransformation [10]: Compound metabolized
Bacterial Biotransformation [11]: Compound metabolized
Bacterial Biotransformation [12]: Compound metabolized
Bacterial Biotransformation [13]: Compound metabolized
Bacterial Biotransformation [14]: Compound metabolized
Bacterial Biotransformation [15]: Compound metabolized
Bacterial Biotransformation [16]: Compound metabolized
Bacterial Biotransformation [17]: Compound metabolized
Bacterial Biotransformation [18]: Compound metabolized
Bacterial Biotransformation [19]: Compound metabolized
Bacterial Biotransformation [20]: Compound NOT metabolized

O=C(O)CCC(=O)O.O=C(O[C@H]1CN2CCC1CC2)N1CCc2ccccc2[C@@H]1c1ccccc1 [SOLIFENACIN SUCCINATE]
Bacterial Biotransformation [1]: Compound metabolized
Bacterial Biotransformation [2]: Compound metabolized
Bacterial Biotransformation [3]: Compound NOT metabolized
Bacterial Biotransformation [4]: Compound NOT metabolized
Bacterial Biotransformation [5]: Compound metabolized
Bacterial Biotransformation [6]: Compound metabolized
Bacterial Biotransformation [7]: Compound NOT metabolized
Bacterial Biotransformation [8]: Compound NOT metabolized
Bacterial Biotransformation [9]: Compound NOT metabolized
Bacterial Biotransformation [10]: Compound metabolized
Bacterial Biotransformation [11]: Compound metabolized
Bacterial Biotransformation [12]: Compound metabolized
Bacterial Biotransformation [13]: Compound NOT metabolized
Bacterial Biotransformation [14]: Compound NOT metabolized
Bacterial Biotransformation [15]: Compound metabolized
Bacterial Biotransformation [16]: Compound metabolized
Bacterial Biotransformation [17]: Compound metabolized
Bacterial Biotransformation [18]: Compound metabolized
Bacterial Biotransformation [19]: Compound metabolized
Bacterial Biotransformation [20]: Compound metabolized

CCN(CC)CCOC(=O)C1(C2CCCCC2)CCCCC1 [DICYCLOMINE]
Bacterial Biotransformation [1]: Compound metabolized
Bacterial Biotransformation [2]: Compound NOT metabolized
Bacterial Biotransformation [3]: Compound NOT metabolized
Bacterial Biotransformation [4]: Compound NOT metabolized
Bacterial Biotransformation [5]: Compound metabolized
Bacterial Biotransformation [6]: Compound metabolized
Bacterial Biotransformation [7]: Compound metabolized
Bacterial Biotransformation [8]: Compound NOT metabolized
Bacterial Biotransformation [9]: Compound NOT metabolized
Bacterial Biotransformation [10]: Compound NOT metabolized
Bacterial Biotransformation [11]: Compound NOT metabolized
Bacterial Biotransformation [12]: Compound NOT metabolized
Bacterial Biotransformation [13]: Compound metabolized
Bacterial Biotransformation [14]: Compound metabolized
Bacterial Biotransformation [15]: Compound NOT metabolized
Bacterial Biotransformation [16]: Compound NOT metabolized
Bacterial Biotransformation [17]: Compound NOT metabolized
Bacterial Biotransformation [18]: Compound NOT metabolized
Bacterial Biotransformation [19]: Compound metabolized
Bacterial Biotransformation [20]: Compound metabolized

COc1ccc(/C=C/C(=O)Nc2ccccc2C(=O)O)cc1OC
Bacterial Biotransformation [1]: Compound NOT metabolized
Bacterial Biotransformation [2]: Compound metabolized
Bacterial Biotransformation [3]: Compound NOT metabolized
Bacterial Biotransformation [4]: Compound NOT metabolized
Bacterial Biotransformation [5]: Compound NOT metabolized
Bacterial Biotransformation [6]: Compound metabolized
Bacterial Biotransformation [7]: Compound NOT metabolized
Bacterial Biotransformation [8]: Compound metabolized
Bacterial Biotransformation [9]: Compound metabolized
Bacterial Biotransformation [10]: Compound NOT metabolized
Bacterial Biotransformation [11]: Compound NOT metabolized
Bacterial Biotransformation [12]: Compound NOT metabolized
Bacterial Biotransformation [13]: Compound NOT metabolized
Bacterial Biotransformation [14]: Compound NOT metabolized
Bacterial Biotransformation [15]: Compound metabolized
Bacterial Biotransformation [16]: Compound NOT metabolized
Bacterial Biotransformation [17]: Compound NOT metabolized
Bacterial Biotransformation [18]: Compound metabolized
Bacterial Biotransformation [19]: Compound NOT metabolized
Bacterial Biotransformation [20]: Compound metabolized
